The target in the experiment is p38a activated, mitogen-activated protein kinase-activated protein kinase 2 (MAPKAP-K2 or MK2) enzyme (Homo sapiens (Human), UniProt P49137). Kind of experiment: MK2 Omnia continuous-read kinase assay for compound potency. The settings on record: [MK-2]=0.4 nM, [ATP]=10 μM, [ST3-Sox]=10 μM; room temperature. Type of experiment: biochemical. The source says: Mitogen-Activated Protein Kinase-Activated Protein Kinase 2 Omnia® Assay for Compound Potency Assessment:
The protocol below describes a continuous-read kinase assay optimized to measure potency of compounds against p38a activated, mitogen-activated protein kinase-activated protein kinase 2 (MAPKAP-K2 or MK2) enzyme. Further details of this assay are described by Life Technologies, Carlsbad, CA on their website at the following URL: http://tools.lifetechnologies.com/content/sfs/manuals/omnia_kinase_assay_man.pdf. • [Reagent] used: • [MK-2]=0.4 nM, • [ATP]=10 μM and • [ST3-Sox]=10 μM (ATP^appKM=10 μM)
Briefly, 10× stock solutions of MK2 (PV3317, from Life Technologies), 1.13X ATP (AS001A), and Sox conjugated peptide substrate, S/T3-Sox, (KZN1031) were prepared in 1× kinase reaction buffer consisting of 20 mM Tris, pH 7.5, 5 mM MgCl2, 1 mM EGTA, 5 mM β-glycerophosphate, 5% glycerol (10× stock, KB001A) and 0.2 mM DTT (DS001A). Enzyme solution (5 μL) was added to each of DMSO ([…]) or serially diluted test compounds prepared in DMSO in a Corning (#3574) 384-well, white, non-binding surface microtiter plate (Corning, NY). Kinase reactions were started with the addition of 45 μL of the ATP-peptide substrate S/T3-Sox mix and monitored every 71 seconds for 120 minutes at λex360/λem485 in a Synergy H4 plate reader from BioTek (Winooski, VT) at room temperature.
Background signals from the no enzyme control wells were subtracted from all progress curves. The initial linear portions of the net progress curves were fit according to a linear equation to yield the slope and percentage of inhibition (% inhibition) at each compound concentration. The net progress curves obtained during the first two hours of reactions were also fit according to an ascending single-exponential equation (Eq. 1) to yield kobs values at each compound concentration. Plots of % Inhibition versus inhibitor concentrations were fit according to a dose-response equation (Eq. 2) to generate IC50 and Hill slope values while plots of kobs versus inhibitor concentration were fit according to Equation 3 (Eq. 3) to generate apparent kinact/K1 values using the GraphPad PRISM software (Version 6.00; GraphPad San Diego, CA).
where F is the fluorescence intensity from the plate reader, V0 is a constant reflecting the relationship between the instrument readout and product concentration, t is time, e is Euler's number, and kobs is the observed inactivation rate constant.
where % Inhibition is percentage of inhibition, IC50 is half maximal inhibitory concentration, [I] is the inhibitor concentration, and n is the Hill slope.
where kobs is the observed inactivation rate constant, kinact is the apparent inactivation rate constant, K1 is the apparent inhibition constant, and [I] is the inhibitor concentration. […] Potency results for the compounds tested are shown in Table 4 in the column entitled “MK2 IC50.”

p38a activated, mitogen-activated protein kinase-activated protein kinase 2 (MAPKAP-K2 or MK2) enzyme, sequence (P49137 whole entry): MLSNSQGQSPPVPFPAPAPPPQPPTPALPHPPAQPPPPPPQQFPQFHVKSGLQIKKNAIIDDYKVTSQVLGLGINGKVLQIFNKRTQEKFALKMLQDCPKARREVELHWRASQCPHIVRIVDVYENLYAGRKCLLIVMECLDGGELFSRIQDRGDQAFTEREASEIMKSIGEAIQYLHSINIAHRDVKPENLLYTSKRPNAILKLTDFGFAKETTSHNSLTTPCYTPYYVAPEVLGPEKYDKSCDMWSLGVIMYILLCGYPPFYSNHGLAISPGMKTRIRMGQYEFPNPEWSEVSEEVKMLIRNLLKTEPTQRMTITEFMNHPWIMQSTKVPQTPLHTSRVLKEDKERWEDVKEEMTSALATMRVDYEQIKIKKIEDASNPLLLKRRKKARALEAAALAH

A word on the IC50: it is the concentration that gives 50% inhibition. On to `C[C@@H]1CNc2c(sc3ccc4nc(-c5cc(Cl)ncc5C#N)ccc4c23)C(=O)N1` [Example I-160, (R)-6-chloro-4-(10-methyl-8-oxo-9,10,11,12-tetrahydro-8H-[1,4]diazepino[5′,6′:4,5]thieno[3,2-f]quinolin-3-yl)nicotinonitrile], for which the IC50 stood at 3 nM. The same measure for `C=Cc1cc(-c2ccc3c(ccc4sc5c(c43)NC[C@@H](C)NC5=O)n2)cc(N2CCC(F)(F)CC2)n1` [Example I-168, (R)-3-(2-(4,4-difluoropiperidin-1-yl)-6-vinylpyridin-4-yl)-10-methyl-9,10,11,12-tetrahydro-8H-[1,4]diazepino[5′,6′:4,5]thieno[3,2-f]quinolin-8-one]: 260 nM; for `[2H]C([2H])([2H])C(O)c1cnc(C=C)cc1-c1ccc2c(ccc3sc4c(c32)NC[C@@H](C)NC4=O)n1` (stereo partly drawn) [Example I-243, (10R)-3-(5-(1-hydroxyethyl-2,2,2-d3)-2-vinylpyridin-4-yl)-10-methyl-9,10,11,12-tetrahydro-8H-[1,4]diazepino[5′,6′:4,5]thieno[3,2-f]quinolin-8-one]: 10 nM. The figure for `C[C@@H]1CNc2c(sc3ccc4nc(-c5nc(Cl)ncc5COC5COC5)ccc4c23)C(=O)N1` [Example I-20, (R)-3-(2-chloro-5-((oxetan-3-yloxy)methyl)pyrimidin-4-yl)-10-methyl-9,10,11,12-tetrahydro-8H-[1,4]diazepino[5′,6′:4,5]thieno[3,2-f]quinolin-8-one] is 224 nM; for `C=Cc1csc(-c2ccc3c(ccc4sc5c(c43)NC[C@@H](C)NC5=O)n2)n1` [Example I-149, (R)-10-methyl-3-(4-vinylthiazol-2-yl)-9,10,11,12-tetrahydro-8H-[1,4]diazepino[5′,6′:4,5]thieno[3,2-f]quinolin-8-one] it is 95 nM; for “(R)-10-methyl-3-(2-(4-methylpiperazin-1-yl)-6-vinylpyridin-4-yl)-9,10,11,12-tetrahydro-8H-[1,4]diazepino[5′,6′:4,5]thieno[3,2-f]quinolin- [Example I-96]” it is 10 nM. `C[C@@H]1CNc2c(sc3ccc4nc(-c5cc(Cl)nc(C#CC(C)(C)N)n5)ccc4c23)C(=O)N1` [Example I-64, (R)-3-(2-(3-amino-3-methylbut-1-yn-1-yl)-6-chloropyrimidin-4-yl)-10-methyl-9,10,11,12-tetrahydro-8H-[1,4]diazepino[5′,6′:4,5]thieno[3,2-f]quinolin-8-one]: the IC50 was 4 nM. The figure for “(R)-10-methyl-3-(6-(3-morpholinoprop-1-en-2-yl)pyrimidin-4-yl)-9,10,11,12-tetrahydro-8H-[1,4]diazepino[5′,6′:4,5]thieno[3,2-f]quinolin- [Example I-139]” is 2 nM; for `C=Cc1cc(-c2ccc3c(ccc4sc5c(c43)NC[C@@H](C)NC5=O)n2)c(C2CC2)cn1` [Example I-196, (R)-3-(5-cyclopropyl-2-vinylpyridin-4-yl)-10-methyl-9,10,11,12-tetrahydro-8H-[1,4]diazepino[5′,6′:4,5]thieno[3,2-f]quinolin-8-one] it is 5 nM; for `C[C@@H]1CNc2c(sc3ccc4nc(-c5nc(Cl)c(C(F)(F)F)cc5F)ccc4c23)C(=O)N1` [Example I-274, (R)-3-(6-chloro-3-fluoro-5-(trifluoromethyl)pyridin-2-yl)-10-methyl-9,10,11,12-tetrahydro-8H-[1,4]diazepino[5′,6′:4,5]thieno[3,2-f]quinolin-8-one] it is 752 nM.

Take `C=Cc1nc(C(F)(F)F)nn1-c1ccc2c(ccc3sc4c(c32)NC[C@@H](C)NC4=O)n1` [Example I-226, (R)-10-methyl-3-(3-(trifluoromethyl)-5-vinyl-1H-1,2,4-triazol-1-yl)-9,10,11,12-tetrahydro-8H-[1,4]diazepino[5′,6′:4,5]thieno[3,2-f]quinolin-8-one]: the IC50 stood at 7 nM. Turning to `C=Cc1nc(C)cn1-c1ccc2c(ccc3sc4c(c32)NC[C@@H](C)NC4=O)n1` [Example I-206, (R)-10-methyl-3-(4-methyl-2-vinyl-1H-imidazol-1-yl)-9,10,11,12-tetrahydro-8H-[1,4]diazepino[5′,6′:4,5]thieno[3,2-f]quinolin-8-one], the IC50 came to 4 nM.

For the compound `C=Cc1cc(-c2ccc3c(ccc4sc5c(c43)NC[C@@H](C)NC5=O)n2)nc(C#CC(C)(C)N)n1` [Example I-66, (R)-3-(2-(3-amino-3-methylbut-1-yn-1-yl)-6-vinylpyrimidin-4-yl)-10-methyl-9,10,11,12-tetrahydro-8H-[1,4]diazepino[5′,6′:4,5]thieno[3,2-f]quinolin-8-one], the IC50 worked out at 9 nM.

`C=Cc1cc(-c2ccc3c(ccc4sc5c(c43)NC[C@@H](C)NC5=O)n2)cc(CN2CCOCC2)n1` [Example I-140, (R)-10-methyl-3-(2-(morpholinomethyl)-6-vinylpyridin-4-yl)-9,10,11,12-tetrahydro-8H-[1,4]diazepino[5′,6′:4,5]thieno[3,2-f]quinolin-8-one]: the IC50 is 14 nM. The figure for `C=Cc1cc(-c2ccc3c(ccc4sc5c(c43)NC[C@@H](C)NC5=O)n2)c(NC)nn1` [Example I-128, (R)-10-methyl-3-(3-(methylamino)-6-vinylpyridazin-4-yl)-9,10,11,12-tetrahydro-8H-[1,4]diazepino[5′,6′:4,5]thieno[3,2-f]quinolin-8-one] is 19 nM; for `C=Cc1ncc(C)c(-c2ccc3c(ccc4sc5c(c43)NC[C@@H](C)NC5=O)n2)n1` [Example I-33, (R)-10-methyl-3-(5-methyl-2-vinylpyrimidin-4-yl)-9,10,11,12-tetrahydro-8H-[1,4]diazepino[5′,6′:4,5]thieno[3,2-f]quinolin-8-one] it is 120 nM. For `C#Cc1cc(-c2ccc3c(ccc4sc5c(c43)NC[C@@H](C)NC5=O)n2)c(OC)nn1` [Example I-91, (R)-3-(6-ethynyl-3-methoxypyridazin-4-yl)-10-methyl-9,10,11,12-tetrahydro-8H-[1,4]diazepino[5′,6′:4,5]thieno[3,2-f]quinolin-8-one], the IC50 worked out at 26 nM.

Regarding `C#Cc1cc(-c2ccc3c(ccc4sc5c(c43)NC[C@@H](C)NC5=O)n2)cc(N2CCC(F)(F)CC2)n1` [Example I-182, (R)-3-(2-(4,4-difluoropiperidin-1-yl)-6-ethynylpyridin-4-yl)-10-methyl-9,10,11,12-tetrahydro-8H-[1,4]diazepino[5′,6′:4,5]thieno[3,2-f]quinolin-8-one], the IC50 is 1000 nM. The same measure for `C/C=C/c1cc(-c2ccc3c(ccc4sc5c(c43)NC[C@@H](C)NC5=O)n2)nc(COCC)n1` [Example I-35, (R,E)-3-(2-(ethoxymethyl)-6-(prop-1-en-1-yl)pyrimidin-4-yl)-10-methyl-9,10,11,12-tetrahydro-8H-[1,4]diazepino[5′,6′:4,5]thieno[3,2-f]quinolin-8-one]: 40 nM.

Regarding `C#Cc1nc(CO)cc(-c2ccc3c(ccc4sc5c(c43)NC[C@@H](C)NC5=O)n2)n1` [Example I-86, (R)-3-(2-ethynyl-6-(hydroxymethyl)pyrimidin-4-yl)-10-methyl-9,10,11,12-tetrahydro-8H-[1,4]diazepino[5′,6′:4,5]thieno[3,2-f]quinolin-8-one], the IC50 came to 23 nM.

(Values after patent US20240190890A1, “MK2 INHIBITORS AND USES THEREOF” (Bristol-Myers Squibb Company, priority 2022, published 2024).)
